Measured values from ChEMBL document CHEMBL5441456, “ASAP - SARS-CoV-2 nsp3 macrodomain dose response” (2024).
Where “and” joins values, the source holds several entries; their conditions need not be identical. Equal entries are not always repeated.

target: Replicase polyprotein 1ab (Severe acute respiratory syndrome coronavirus 2, UniProt P0DTD1); experiment: Functional biochemical assay to identify treatments for viral infectious disease that targets SARS-COV-2 nsp3 macrodomain, whereby the mechanism of action displaces an ADP-Ribose modified peptide from the binding site. Utilizing a time-resolved fluorescence method to measure binding by reading the emitted fluorescence intensity in two wavelengths.

| Structure (SMILES) | IC50 |
| --- | --- |
| CCNC(=O)c1cc2c(N[C@@H](c3ccc4c(c3)S(=O)(=O)CCC4)C(C)C)ncnc2[nH]1 | 56 nM and 100 nM and 20 nM and 34 nM and 19 nM and 33 nM and 53 nM and 32 nM and 42 nM |
| CC(C)[C@@H](Nc1ncnc2[nH]ccc12)c1ccc2c(c1)S(=O)(=O)CO2 | 3620 nM and 2350 nM |
| CC(C)[C@@H](Nc1ncnc2[nH]c(C(=O)NCc3ccno3)cc12)c1ccc2c(c1)OCCO2 | 792 nM and 829 nM |
| CC(C)[C@@H](Nc1ncnc2[nH]c(C(=O)NCC3(CO)CC3)cc12)c1ccc2c(c1)OCCO2 | 802 nM and 2140 nM |
| CC(C)[C@@H](Nc1ncnc2[nH]c(C(=O)Nc3cn(C)nc3O)cc12)c1ccc2c(c1)OCCO2 | 678 nM and 611 nM |
| CC(C)[C@@H](Nc1ccnc2nccn12)c1ccc2c(c1)S(=O)(=O)CCC2 | > 99500 nM |
| CC(C)[C@@H](Nc1ncnc2[nH]c([C@@]3(O)CCCNC3)cc12)c1ccc2c(c1)OCCO2 | 17800 nM and 13900 nM |
| CC(C)[C@@H](Nc1ccnc2[nH]ccc12)c1ccc2c(c1)S(=O)(=O)CCC2 | > 99500 nM |
| CNCc1cc(-c2cc3c(N[C@@H](c4ccc5c(c4)NC(=O)CO5)C(C)C)ncnc3[nH]2)co1 | 313 nM and 187 nM |
| CC(C)[C@@H](Nc1ncnc2[nH]ccc12)c1cccc(S(C)(=O)=O)c1 | 96400 nM |
| CC(C)[C@@H](Nc1cccc2nc[nH]c(=O)c12)c1ccc2c(c1)S(=O)(=O)CCC2 | > 99500 nM |
| CC(C)[C@@H](Nc1ncnc2[nH]c(C(=O)N[C@H]3[C@@H]4COC[C@@H]43)cc12)c1ccc2c(c1)OCCO2 | 629 nM and 543 nM |
| CCNC(=O)c1cc2c(N[C@@H](C(=O)NC3CCOCC3)C(C)C)ncnc2[nH]1 | > 99500 nM |
| CCNC(=O)c1cc2c(N[C@@H](c3cccc(-c4ccc(OC)nc4)c3)C(C)C)ncnc2[nH]1 | 20900 nM and 17700 nM |
| CC(C)[C@@H](Nc1ncnc2[nH]c([C@@]3(O)CCOC3)cc12)c1ccc2c(c1)OCCO2 | 9980 nM and 23000 nM |
| CC(C)[C@@H](Nc1ncnc2[nH]ccc12)c1ccc(F)c(C#N)c1 | 4150 nM and 16600 nM |
| O=C(O)CC(NC(=O)c1ncnc2[nH]ccc12)c1ccc(NC2C[C@H]3CC(CO)C[C@@H]23)cc1 (stereo partly specified) | > 99500 nM |
| CNc1nccc(N[C@@H](c2ccc3c(c2)S(=O)(=O)CCC3)C(C)C)n1 | > 99500 nM |

| Structure (SMILES) | IC50 |
| --- | --- |
| CC(C)[C@@H](Nc1ncnc2[nH]ccc12)c1ccc2c(c1)S(=O)(=O)NCC2 | 1270 nM and 967 nM |
| CCc1[nH]nnc1NC(=O)c1cc2c(N[C@@H](c3ccc4c(c3)OCCO4)C(C)C)ncnc2[nH]1 | 4420 nM and 4280 nM |
| COc1c(Cl)ncnc1N[C@@H](c1ccc2c(c1)S(=O)(=O)CCC2)C(C)C | > 99500 nM |
| CC(C)[C@@H](Nc1ncnc2[nH]c(C(=O)NCC3CN(C)C3)cc12)c1ccc2c(c1)OCCO2 | 866 nM and 790 nM |
| CC(C)[C@@H](Nc1nccc2[nH]c(=O)[nH]c12)c1ccc2c(c1)S(=O)(=O)CCC2 | > 99500 nM |
| O=C1NCCc2ccc(CNc3ncnc4[nH]ccc34)cc21 | > 99500 nM |
| COc1ccc([C@@H](NC(=O)c2ncnc3[nH]ccc23)C(C)(C)C#N)cc1 | > 99500 nM |
| CC(C)[C@@H](Nc1ncnc2[nH]ccc12)c1ccc2c(c1)S(=O)(=O)N(C)CC2 | 5760 nM and 17000 nM |
| CC(C)[C@@H](Nc1ncnc2[nH]c(C(=O)NCCc3c[nH]nn3)cc12)c1ccc2c(c1)OCCO2 | 1290 nM and 947 nM |
| CC(C)[C@@H](Nc1ncnc2[nH]c(C(=O)NCc3nncn3C)cc12)c1ccc2c(c1)OCCO2 | 1390 nM and 1230 nM |
| COc1ccc([C@@H](NC(=O)c2ncnc3[nH]ccc23)C(C)(C)c2nnn[nH]2)cc1 | 1690 nM and 3910 nM |
| CC(C)[C@H](Nc1ncnc2[nH]c(-c3cnn(C)c3C#N)cc12)c1ccc2c(c1)OCCO2 | 238 nM and 901 nM |
| CC(C)[C@@H](Nc1cnc2[nH]cnc2c1)c1ccc2c(c1)S(=O)(=O)CCC2 | > 99500 nM |
| CC(C)[C@@H](Nc1ncnc2[nH]c(C(=O)Nc3ncco3)cc12)c1ccc2c(c1)OCCO2 | 7240 nM and 5890 nM |
| Cc1ncc(CNC(=O)c2cc3c(N[C@@H](c4ccc5c(c4)OCCO5)C(C)C)ncnc3[nH]2)o1 | 695 nM and 623 nM |
| CC(C)[C@@H](Nc1ncnc2[nH]c(C(=O)N[C@@H]3CCN(C)C3)cc12)c1ccc2c(c1)OCCO2 | 414 nM and 502 nM |
| CC(C)[C@@H](Nc1ncnc2[nH]c(C(=O)NCc3ccn(C)n3)cc12)c1ccc2c(c1)OCCO2 | 955 nM and 1040 nM |
| CC(C)[C@@H](c1ccc2c(c1)S(=O)(=O)CCC2)n1c(=O)[nH]c2c(N)ccnc21 | > 99500 nM |
